Reference: ChEMBL document CHEMBL1201862, “PubChem BioAssay data set” (2004)
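Compound exposure: 48 hours, 5 concentrations, 96-well plates. GI50 marks 50% less growth.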 Activity calls are given as the source filed them. Rule as the data show it: active = GI50 up to about 1.1 µM and inactive = higher.

Columns and labels:
Experiment in all cases: NCI-60 cell line screen, 48 h
[1] = test system: HOP-62
[2] = test system: MOLT-4
[3] = test system: K562
[4] = test system: HCC 2998
[5] = test system: IGROV-1
[6] = test system: Malme-3M
[7] = test system: SK-MEL-2
[8] = test system: MDA-MB-231
[9] = test system: DU-145
[10] = test system: BT-549
[11] = test system: PC-3
[12] = test system: SK-MEL-5
[13] = test system: COLO 205
[14] = test system: NCI-H460
[15] = test system: CAKI-1
[16] = test system: EKVX
[17] = test system: SW-620
[18] = test system: U-251
[19] = test system: T47D
[20] = test system: HCT-15

N=c1sc2ccccc2n1CC[S-].c1ccc2c(c1)sc1[n+]2CCS1
GI50 [1]: 17.3 µM (inactive) | GI50 [2]: 3 µM (inactive) | GI50 [3]: 16.7 µM (inactive) | GI50 [4]: 17.1 µM (inactive) | GI50 [5]: 12.5 µM (inactive) | GI50 [6]: 17.7 µM (inactive) | GI50 [7]: 18.2 µM (inactive) | GI50 [8]: 17 µM (inactive) | GI50 [9]: 21.2 µM (inactive) | GI50 [10]: 23.1 µM (inactive) | GI50 [11]: 29.8 µM (inactive) | GI50 [12]: 14.8 µM (inactive) | GI50 [13]: 14.3 µM (inactive) | GI50 [14]: 14.4 µM (inactive) | GI50 [15]: 16.9 µM (inactive) | GI50 [16]: 22 µM (inactive) | GI50 [17]: 17.1 µM (inactive) | GI50 [18]: 15.5 µM (inactive) | GI50 [19]: 23.6 µM (inactive) | GI50 [20]: 16.7 µM

COc1ccc(-c2oc3c(OC)c(OC)cc(O)c3c(=O)c2OC)cc1
GI50 [1]: 55.8 µM (inactive) | GI50 [2]: > 100 µM (inactive) | GI50 [3]: > 100 µM (inactive) | GI50 [4]: > 100 µM (inactive) | GI50 [5]: > 100 µM (inactive) | GI50 [6]: > 100 µM (inactive) | GI50 [7]: > 100 µM (inactive) | GI50 [8]: 69.2 µM (inactive) | GI50 [9]: > 100 µM (inactive) | GI50 [10]: > 100 µM (inactive) | GI50 [11]: > 10 µM (inactive) | GI50 [12]: 91.6 µM (inactive) | GI50 [13]: > 100 µM (inactive) | GI50 [14]: > 100 µM (inactive) | GI50 [15]: > 100 µM (inactive) | GI50 [16]: > 100 µM (inactive) | GI50 [17]: > 100 µM (inactive) | GI50 [18]: 70.8 µM (inactive) | GI50 [19]: > 100 µM (inactive) | GI50 [20]: > 100 µM

Cc1nc2c(o1)C(=O)c1ccccc1/C2=N/C1CCCCC1N (stereo not given)
GI50 [1]: 0.982 µM (active) | GI50 [2]: 0.273 µM (active) | GI50 [3]: 0.235 µM (active) | GI50 [4]: 1.65 µM (inactive) | GI50 [5]: 1.26 µM (inactive) | GI50 [6]: 0.133 µM (active) | GI50 [7]: 0.867 µM (active) | GI50 [8]: 0.373 µM (active) | GI50 [9]: 1.48 µM (inactive) | GI50 [10]: 0.41 µM (active) | GI50 [11]: 0.321 µM (active) | GI50 [12]: 0.11 µM (active) | GI50 [13]: 1.66 µM (inactive) | GI50 [14]: 1.61 µM (inactive) | GI50 [15]: 1.71 µM (inactive) | GI50 [16]: 1.11 µM (active) | GI50 [17]: 0.418 µM (active) | GI50 [18]: 0.312 µM (active) | GI50 [19]: 0.345 µM (active) | GI50 [20]: 0.547 µM

COc1cc2c(cc1OC)CCc1cc(OC)c(OC)cc1CC2
GI50 [1]: > 100 µM (inactive) | GI50 [2]: > 100 µM (inactive) | GI50 [3]: > 100 µM (inactive) | GI50 [4]: > 100 µM (inactive) | GI50 [5]: > 100 µM (inactive) | GI50 [6]: > 100 µM (inactive) | GI50 [7]: > 100 µM (inactive) | GI50 [8]: > 100 µM (inactive) | GI50 [9]: > 100 µM (inactive) | GI50 [10]: > 100 µM (inactive) | GI50 [11]: > 100 µM (inactive) | GI50 [12]: > 100 µM (inactive) | GI50 [13]: > 100 µM (inactive) | GI50 [14]: > 100 µM (inactive) | GI50 [15]: > 100 µM (inactive) | GI50 [16]: > 100 µM (inactive) | GI50 [17]: > 100 µM (inactive) | GI50 [18]: > 100 µM (inactive) | GI50 [19]: 31.3 µM (inactive) | GI50 [20]: > 100 µM

CCCCCCC(=O)OC[n+]1cccc(-c2c(COC(=O)NC(C)C)c(COC(=O)NC(C)C)c3n2CCC3)c1
GI50 [1]: 42.5 µM (inactive) | GI50 [2]: 11.6 µM (inactive) | GI50 [3]: 31.6 µM (inactive) | GI50 [4]: > 100 µM (inactive) | GI50 [5]: > 41.8 µM (inactive) | GI50 [6]: 38.9 µM (inactive) | GI50 [7]: 26.7 µM (inactive) | GI50 [8]: 47.3 µM (inactive) | GI50 [9]: 35.9 µM (inactive) | GI50 [10]: 37.8 µM (inactive) | GI50 [11]: > 56.8 µM (inactive) | GI50 [12]: 32.4 µM (inactive) | GI50 [13]: 51.4 µM (inactive) | GI50 [14]: 14.5 µM (inactive) | GI50 [15]: 11 µM (inactive) | GI50 [16]: > 100 µM (inactive) | GI50 [17]: 28.4 µM (inactive) | GI50 [18]: 29.4 µM (inactive) | GI50 [19]: 61.8 µM (inactive) | GI50 [20]: 42.6 µM

O=C1/C(=C/c2cccc(Br)c2)CSC/C1=C\c1cccc(Br)c1
GI50 [1]: 2.72 µM (inactive) | GI50 [2]: 1.87 µM (inactive) | GI50 [3]: 2.36 µM (inactive) | GI50 [4]: 1.78 µM (inactive) | GI50 [5]: 3.04 µM (inactive) | GI50 [6]: 1.92 µM (inactive) | GI50 [7]: 3.08 µM (inactive) | GI50 [8]: 4.2 µM (inactive) | GI50 [9]: 8.69 µM (inactive) | GI50 [10]: 2.13 µM (inactive) | GI50 [11]: 2.5 µM (inactive) | GI50 [12]: 1.87 µM (inactive) | GI50 [13]: 2.9 µM (inactive) | GI50 [14]: 2.57 µM (inactive) | GI50 [15]: 2.47 µM (inactive) | GI50 [16]: 5.68 µM (inactive) | GI50 [17]: 2.73 µM (inactive) | GI50 [18]: 1.87 µM (inactive) | GI50 [19]: 4.89 µM (inactive) | GI50 [20]: 2.51 µM

CCCC(=O)Nc1cc(/C=C/C(=O)N2C[C@@H]3C[C@]34C2=CC(=O)c2[nH]cc(C)c24)n(C)c1
GI50 [1]: 0.769 µM (active) | GI50 [2]: 0.0257 µM (active) | GI50 [3]: 0.0661 µM (active) | GI50 [4]: 0.0931 µM (active) | GI50 [5]: 0.329 µM (active) | GI50 [6]: 0.0746 µM (active) | GI50 [7]: 0.261 µM (active) | GI50 [8]: 0.38 µM (active) | GI50 [9]: 0.0673 µM (active) | GI50 [10]: 0.29 µM (active) | GI50 [11]: 0.259 µM (active) | GI50 [12]: 0.0748 µM (active) | GI50 [13]: 0.293 µM (active) | GI50 [14]: 0.221 µM (active) | GI50 [15]: 0.1 µM (active) | GI50 [16]: 0.644 µM (active) | GI50 [17]: 0.0706 µM (active) | GI50 [18]: 0.0702 µM (active) | GI50 [19]: 0.0867 µM (active) | GI50 [20]: 0.723 µM

Cc1cc(-c2nc3cc(O)ccc3s2)ccc1N
GI50 [1]: 26.8 µM (inactive) | GI50 [2]: 96.2 µM (inactive) | GI50 [3]: 38.5 µM (inactive) | GI50 [4]: 37.8 µM (inactive) | GI50 [5]: 33.4 µM (inactive) | GI50 [6]: 45.7 µM (inactive) | GI50 [7]: 28.4 µM (inactive) | GI50 [8]: 30 µM (inactive) | GI50 [9]: 39.8 µM (inactive) | GI50 [10]: 45.8 µM (inactive) | GI50 [11]: 30.1 µM (inactive) | GI50 [12]: 22.5 µM (inactive) | GI50 [13]: 21 µM (inactive) | GI50 [14]: 29 µM (inactive) | GI50 [15]: 34 µM (inactive) | GI50 [16]: 10.2 µM (inactive) | GI50 [17]: 38 µM (inactive) | GI50 [18]: 30.5 µM (inactive) | GI50 [19]: 22.9 µM (inactive) | GI50 [20]: 41.2 µM

CC(C)N1CCN(c2ccc(OCC3COC(Cn4cncn4)(c4ccc(Cl)cc4Cl)O3)cc2)CC1 (stereo not given) [TERCONAZOLE]
GI50 [1]: 13.8 µM (inactive) | GI50 [2]: 10.9 µM (inactive) | GI50 [3]: 3.47 µM (inactive) | GI50 [4]: 9.18 µM (inactive) | GI50 [5]: 16 µM (inactive) | GI50 [6]: 7.85 µM (inactive) | GI50 [7]: 14.7 µM (inactive) | GI50 [8]: 14 µM (inactive) | GI50 [9]: 16.3 µM (inactive) | GI50 [10]: 14.4 µM (inactive) | GI50 [11]: 14.6 µM (inactive) | GI50 [12]: 2.18 µM (inactive) | GI50 [13]: 1.9 µM (inactive) | GI50 [14]: 14.6 µM (inactive) | GI50 [15]: 17.3 µM (inactive) | GI50 [16]: 15.1 µM (inactive) | GI50 [17]: 15.3 µM (inactive) | GI50 [18]: 12.9 µM (inactive) | GI50 [19]: 18 µM (inactive) | GI50 [20]: 9.53 µM
